From patent US4875922A, “Pyrimidine derivatives” (Imperial Chemical Industries PLC, priority 1986, dated 1989)

Legend:
[1] = system: Spring Barley; experiment: Intermediate Retardant Test, spring barley; type: in vivo, Spring Barley (Atem/kym); conditions: Hordeum vulgare, 672 h, overall spray, approximately 28 days, Table VII, read-out: Percentage Reduction in Height of Spring Barley (Compared to formulation blank)
Method in brief: (§1)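 Overall spray at 500 and 2000 ppm (0.5 and 2 kg/ha^-1 at 1000 l/ha^-1); for apples, a 2000 ppm foliar-only spray was also compared with a 2000 ppm root drench. Rice grew in flooded 4" paddy pots, barley and apples in 4" pots. About 28 days after treatment, height (to top-most ligule, or to apex for apples) was recorded as % reduction versus formulation blank.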

[2] = system: Pyricularia oryzae; type: in vivo; conditions: 100 ppm spray plus root drench (approximately 40 ppm a.i/dry soil), one or two days before inoculation
[3] = system: Erysiphe graminis; experiment: Foliar fungal disease control, Erysiphe graminis (barley); type: in vivo; conditions: 100 ppm spray plus root drench (approximately 40 ppm a.i/dry soil); inoculated 24 hours before treatment
[4] = system: Apple; experiment: Whole plant screen for plant growth regulator activity, apple (AP); type: in vivo, Apple (Red Delicious); conditions: 4000 ppm (4 kg/ha), visual score after 2-6 weeks
Method in brief: (§2)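 Growth-regulator effects were judged by eye on glasshouse plants 2-6 weeks post-spray (timing varying with season), using formulation blanks for comparison. Application rate was 4000 ppm, equivalent to 4 kg/ha in 1000 l/ha.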

[5] = system: Barley; experiment: Whole plant screen for plant growth regulator activity, barley (BR); type: in vivo, Barley (Atem); conditions: for G = Greening effect / I = Interligular or internodal length reduction / R = Retardation / T = Tillering or side shooting: BR, 4000 ppm (4 kg/ha), visual score after 2-6 weeks; for T = Tillering or side shooting: * = decrease in tillering
Method in brief: as §2

[6] = system: Rice; experiment: Intermediate Retardant Test, rice; type: in vivo, Rice (Ishikari); conditions: Oryza sativa, 672 h, overall spray, approximately 28 days, Table VI, read-out: Percentage Reduction in Height of Rice (Compared to formulation blank)
Method in brief: as §1

[7] = system: Phytophthora infestans; type: in vivo; conditions: 100 ppm spray plus root drench (approximately 40 ppm a.i/dry soil), one or two days before inoculation
[8] = system: Rice; experiment: Whole plant screen for plant growth regulator activity, rice (RC); type: in vivo, Rice (Ishikari); conditions: 4000 ppm (4 kg/ha), visual score after 2-6 weeks; for T = Tillering or side shooting: * = decrease in tillering
Method in brief: as §2

[9] = system: Puccinia recondita; experiment: Foliar fungal disease control, Puccinia recondita (wheat); type: in vivo; conditions: 100 ppm spray plus root drench (approximately 40 ppm a.i/dry soil), one or two days before inoculation
[10] = system: Wheat; experiment: Whole plant screen for plant growth regulator activity, wheat (WW); type: in vivo, Wheat (Timmo); conditions: WW, 4000 ppm (4 kg/ha), visual score after 2-6 weeks; for T = Tillering or side shooting: * = decrease in tillering
Method in brief: as §2

[11] = system: Maize; experiment: Whole plant screen for plant growth regulator activity, maize (MZ); type: in vivo, Maize (Earliking); conditions: 4000 ppm (4 kg/ha), visual score after 2-6 weeks
Method in brief: as §2

[12] = system: Plasmopara viticola; experiment: Foliar fungal disease control, Plasmopara viticola (vine); type: in vivo; conditions: 100 ppm spray plus root drench (approximately 40 ppm a.i/dry soil), one or two days before inoculation
[13] = system: Apples; experiment: Intermediate Retardant Test, apples, overall spray; type: in vivo, Apples (Red Delicious); conditions: approximately 28 days, Table VIII
Text: Three species are involved in this test RICE, SPRING-BARLEY and APPLES. The variety and growth stages at spray are outlined in Table V. Compounds were applied at 500 ppm and 2000 ppm respectively (0.5 kg and 2 kg/ha^-1 at a field volume of 1000 l/ha^-1) as an overall spray except in the case of certain tests on APPLES. This gives a foliar and root component in the test, i.e., this test will detect the activity of both root and foliar acting compounds. The intermediate retardant test on APPLES of which the results are given in Table IX was different, in that a foliar (only) spray at 2000 ppm was compared with a root drench, also at 2000 ppm. The rice was grown in 4" `paddy` pots, i.e., the roots and bottom of the stems are immersed in water under conditions corresponding to those in paddy fields. Spring barley and apples were grown in 4" pots. The plants were assessed for height to top-most ligule at approximately 28 days after treatment for spring barley and rice and for height to apex at approximately 28 days after the treatment for apples. In each case the result for the 500 ppm and 2000 ppm test for each compound is compared to the height of the formulation blank in that test, presented as a percentage reduction in height compared to the formulation blank.

[14] = system: Cercospora arachidicola; experiment: Foliar fungal disease control, Cercospora arachidicola (peanut); type: in vivo; conditions: 100 ppm spray plus root drench (approximately 40 ppm a.i/dry soil), one or two days before inoculation
[15] = system: Tomato; experiment: Whole plant screen for plant growth regulator activity, tomato (TO); type: in vivo, Tomato (Ailsa Craig); conditions: 4000 ppm (4 kg/ha), visual score after 2-6 weeks
Method in brief: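 Plant growth regulation scored visually 2–6 weeks post-spray, relative to formulation-blank controls, with growth at 25/22 °C day/night under 16 h light. Treatment: 4000 ppm (4 kg/ha, 1000 l/ha volume) track-sprayed onto Ailsa Craig tomato at the 2–2½ leaf stage, grown singly in 3-inch peat pots.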

[16] = system: Apples; experiment: Intermediate Retardant Test, apples, foliar spray compared with root drench; type: in vivo, Apples (Red Delicious); conditions: 672 h, approximately 28 days, Table IX, read-out: Percentage Reduction in Height of Apples (Compared to formulation blank); for percent reduction in plant height at 2000 ppm: 2000 ppm (Foliar); for percent reduction in plant height at 2000 µg/mL: soil, 2000 pmm (Root), root drench
Method in brief: as §1

[17] = system: Venturia inaequalis; experiment: Foliar fungal disease control, Venturia inaequalis (apple); type: in vivo; conditions: 100 ppm spray plus root drench (approximately 40 ppm a.i/dry soil), one or two days before inoculation

Row | SMILES | percent reduction in plant height at 500 ppm [1] [%] | percent reduction in plant height at 2000 ppm [1] [%] | disease control, P[…] (RICE) [2] | disease control, ERYSIPHE GRAMINIS (BARLEY) [3] | I = Interligular or internodal length reduction [4] | R = Retardation [4] | G = Greening effect [5] | I = Interligular or internodal length reduction [5] | R = Retardation [5] | Percent reduction in rice height vs formulation blank at 500 ppm [6] [%] | Percent reduction in rice height vs formulation blank at 2000 ppm [6] [%] | disease control, PH[…] (TOMATO) [7] | G = Greening effect [8] | I = Interligular or internodal length reduction [8] | R = Retardation [8] | disease control, PUCCINIA RECONDITA (WHEAT) [9] | R = Retardation [10] | T = Tillering or side shooting [10] | disease control, PLASMOPARA VITICOLA (VINE) [12] | disease control, CERCOSPORA ARACHIDICOLA (PEANUT) [14] | also measured
1 | CCCCC#CC(O)(c1cncnc1)C(C)C (stereo not shown) [Compound 1, 2-methyl-1-(hex-1-yne)-1-(pyrimidin-5-yl)-propan-1-ol] | 1.3 | 12.1 | 0 (60-100% of disease on untreated plants) | 4 | 3 (61-100%) | 3 (61-100%) | 2 (31-60%) | 3 (61-100%) | 3 (61-100%) | 6.06 | 23 | 0 (60-100% of disease on untreated plants) | 2 (31-60%) | 3 (61-100%) | 2 (31-60%) | 0 (60-100% of disease on untreated plants) | 3 (61-100%) | 2 (31-60%) | 0 (60-100% of disease on untreated plants) | 0 (60-100% of disease on untreated plants) | T = Tillering or side shooting ([4]; * = decrease in tillering): 1 (10-30%); T = Tillering or side shooting [5]: 1 (10-30%); T = Tillering or side shooting [8]: 3 (61-100%); G = Greening effect [10]: 1 (10-30%); I = Interligular or internodal length reduction [11]: 2 (31-60%); R = Retardation [11]: 2 (31-60%); Percentage Reduction in Height of Apples (Compared to formulation blank) ([13]; 500 ppm): 10.8%; Percentage Reduction in Height of Apples (Compared to formulation blank) ([13]; 2000 ppm): 39.2%
2 | CC(C)(C)C(O)(C#CCCCCl)c1cncnc1 (stereo not shown) [Compound 19, 2,2-Dimethyl-1-(5-chloropent-1-yne)-1-(pyrimidin-5-yl)-propan-1-ol] | 31 | 57 | 0 (60-100% of disease on untreated plants) | 4 | 3 (61-100%) | 3 (61-100%) | 1 (10-30%) | 3 (61-100%) | 3 (61-100%) | 11 | 39 | 0 (60-100% of disease on untreated plants) | 2 (31-60%) | 3 (61-100%) | 2 (31-60%) | 4 | 3 (61-100%) | 3 (61-100%) | 0 (60-100% of disease on untreated plants) | 4 | G = Greening effect [15]: 2 (31-60%); I = Interligular or internodal length reduction [15]: 2 (31-60%); R = Retardation [15]: 2 (31-60%); G = Greening effect [4]: 1 (10-30%); A = Apical damage ([5]; 4000 ppm): 3 (61-100%); T = Tillering or side shooting [5]: 3 (61-100%); percent reduction in plant height at 2000 ppm [16]: 54%; percent reduction in plant height at 2000 µg/mL [16]: 65%; I = Interligular or internodal length reduction [10]: 3 (61-100%)
3 | CC(C)CC#CC(O)(c1cncnc1)C(C)(C)C (stereo not shown) [Compound 16] | 66 | 88 | 3 (trace - 5% of disease on untreated plants) | 4 | 3 (61-100%) | 3 (61-100%) | 2 (31-60%) | 2 (31-60%) | 3 (61-100%) | 59 | 65 | 0 (60-100% of disease on untreated plants) | 2 (31-60%) | 3 (61-100%) | 3 (61-100%) | 3 (trace - 5% of disease on untreated plants) | 3 (61-100%) | 3 (61-100%) | 0 (60-100% of disease on untreated plants) | 4 | G = Greening effect [15]: 2 (31-60%); I = Interligular or internodal length reduction [15]: 3 (61-100%); R = Retardation [15]: 3 (61-100%); disease control, VENTURIA INAEQUALIS (APPLE) [17]: 4; G = Greening effect [4]: 3 (61-100%); T = Tillering or side shooting [8]: 1 (10-30%); percent reduction in plant height at 2000 ppm [16]: 6%; percent reduction in plant height at 2000 µg/mL [16]: 47%; G = Greening effect [10]: 2 (31-60%); I = Interligular or internodal length reduction [10]: 3 (61-100%); G = Greening effect [11]: 2 (31-60%); I = Interligular or internodal length reduction [11]: 3 (61-100%); R = Retardation [11]: 3 (61-100%); T = Tillering or side shooting ([11]; * = decrease in tillering): 1 (10-30%)
